Data published in article PMC3759900, “Acetylcholinesterase Reactivators (HI-6, Obidoxime, Trimedoxime, K027, K075, K127, K203, K282): Structural Evaluation of Human Serum Albumin Binding and Absorption Kinetics” (International Journal of Molecular Sciences, 2013).

Target: Human Serum Albumin (HSA) (Homo sapiens, UniProt P02768)
Experiment: HSA binding by ultrafiltration (Centrifree) and HPLC
Settings: HSA 45 g/L in phosphate buffer saline, 90 min at 37 °C, mean of three independent measurements

Sequence of Human Serum Albumin (HSA) (P02768 25-609): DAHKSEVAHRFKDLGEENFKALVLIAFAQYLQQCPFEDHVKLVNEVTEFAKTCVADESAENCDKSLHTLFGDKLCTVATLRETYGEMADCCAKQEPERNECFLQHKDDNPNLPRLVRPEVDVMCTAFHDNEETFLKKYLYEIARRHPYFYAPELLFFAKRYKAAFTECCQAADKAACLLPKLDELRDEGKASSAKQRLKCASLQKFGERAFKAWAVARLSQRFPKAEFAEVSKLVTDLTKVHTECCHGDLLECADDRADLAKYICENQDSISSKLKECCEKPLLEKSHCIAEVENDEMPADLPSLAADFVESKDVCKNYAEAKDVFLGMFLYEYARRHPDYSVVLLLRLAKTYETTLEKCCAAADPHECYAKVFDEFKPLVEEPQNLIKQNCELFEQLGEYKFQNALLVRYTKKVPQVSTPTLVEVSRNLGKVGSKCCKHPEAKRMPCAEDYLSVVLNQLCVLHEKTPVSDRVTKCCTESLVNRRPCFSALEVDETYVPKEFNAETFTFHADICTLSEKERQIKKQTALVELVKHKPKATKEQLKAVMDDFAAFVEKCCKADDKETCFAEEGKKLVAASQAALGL

SMILES | Binding to Human Serum Albumin (HSA)
NC(=O)c1cc[n+](COC[n+]2ccccc2/C=N/O)cc1 [HI-6] | 1%
NC(=O)c1cc[n+](CCC[n+]2ccc(/C=N/O)cc2)cc1 [K027] | 5%
O/N=C/c1cc[n+](C/C=C/C[n+]2ccc(/C=N/O)cc2)cc1 [K075] | 10%
NC(=O)c1cc[n+](CCOCC[n+]2ccc(C=NO)cc2)cc1 [K127] | 4%
NC(=O)c1cc[n+](C/C=C/C[n+]2ccc(/C=N/O)cc2)cc1 [K203] | 15%
ON=Cc1cc[n+](C/C=C\C[n+]2ccc(C=NO)cc2)cc1 [K282] | 12%
O/N=C/c1cc[n+](CCC[n+]2ccc(/C=N/O)cc2)cc1 [Trimedoxime, trimedoxime] | 6%

Test system: not listed separately
Experiment: Pharmacokinetic study, plasma concentration after i.m. injection (HPLC)
Settings: male Wister rats, description of plasma kinetic curves

SMILES | Elimination from blood (kinetic curve profile)
NC(=O)c1cc[n+](COC[n+]2ccccc2/C=N/O)cc1 [HI-6] | slow elimination from the blood
O/N=C/c1cc[n+](COC[n+]2ccc(/C=N/O)cc2)cc1 [Obidoxime, obidoxime] | relatively fast elimination
O/N=C/c1cc[n+](CCC[n+]2ccc(/C=N/O)cc2)cc1 [Trimedoxime, trimedoxime] | slow elimination from the blood
